Paper PMC5848165 (Toxins, 2018)
Residues, ends and D or L forms follow the SMILES beside them.

What was measured:
[1] = test system: WT Nav1.7, domain II voltage sensor; experiment: Voltage sensor trapping test on WT Nav1.7 (patch clamp pulse protocols); type: cell-based, human; details: 10 µM
Protocol: It has been proven that scorpion β-toxins trapped the domain II S4 voltage sensor in the outward position. However, HWTX-IV inhibited sodium channels by trapping voltage sensor in a closed configuration [15]. We wondered whether JZTX-34 blocked sodium channels in a resting state or an outward position. The current traces were recorded by a 50 ms depolarizing pulse of −10 mV from a holding potential of −80 mV. At first, 10 µM JZTX-34 was added to cells and incubated for 5 min. Then, the currents were elicited by the protocol described before. […] To further confirm this, the same protocol described by Cestele et al. was used to assess whether JZTX-34 traps the domain II S4 voltage sensor of the WT Nav1.7 in a closed position. A 15 ms test pulse to 0 mV was applied from a holding potential of −80 mV and was followed by a 1 ms conditioning pulse to +50 mV. Then, a 15 ms test pulse to −65 mV was used to detect whether the currents were elicited.
Figure 5 JZTX-34 traps the domain II voltage sensor in closed configuration. (A) Nav1.7 current traces were elicited by a protocol as following. First, an inward sodium currents were elicited by a 50 ms depolarizing potential to 0 mV from a holding potential of −80 mV every 5 s. Second, 10 μM JZTX-34 were added to bath solution. Finally, the same pulse protocol was applied to elicit inward currents after a 5 min toxin treatment. (B) The current traces 0, 15 ms, 100 ms, and 5 min after toxin treatment are shown, which were elicited by a protocol as shown in C. (C) This pulse protocol was included three phases and applied every 5 s. […]
(§1) The HEK293T cells were maintained in standard culture conditions (5% CO2 and 37 °C). […] After culturing for 36–72 h, cells with obvious green fluorescence were selected for sodium currents recordings the internal solution for sodium currents recording that contained (in mM) 140 CsF, 5 NaCl, 10 HEPES, 3 Na2-ATP, and 10 EGTA. […]
Sodium currents were recorded from DRG, HEK293, and ND cells by the whole-cell patch-clamp technique at 25 °C. […]

[2] = test system: Nav1.8; experiment: Whole-cell patch clamp, Nav1.8 in ND cells; type: cell-based, human; details: 1 µM, −10 mV from −80 mV
Source text: (§2) Nine sodium channel subtypes have been identified and classified as TTX-S (Nav1.1–Nav1.4, Nav1.6, and Nav1.7) or TTX-R types (Nav1.5, Nav1.8, and Nav1.9). […] However, the subtype selectivity of JZTX-34 on the subtype of sodium channel is still unknown. In this work, effects of JZTX-34 on VGSC subtypes (Nav1.1–Nav1.8) were examined. Nav1.1–Nav1.7 were transfected into HEK293 cells and Nav1.8 currents were expressed in ND cells. Inward sodium currents were elicited by a 50 ms depolarizing potential to −10 mV from a holding potential of −80 mV every 5 s. […] No effects on other sodium channel subtypes were found (Nav1.1, Nav1.2, Nav1.4–Nav1.6, and Nav1.8) (Figure S2). […]
as §1
(§3) Sodium currents were recorded from DRG, HEK293, and ND cells by the whole-cell patch-clamp technique at 25 °C. […] Experiments date were acquired from whole-cell Axon 700B patch clamp amplifier (Molecular Devices, Sunnyvale, CA, USA) and analyzed by the program Clampfit10.0 (Molecular Devices, Sunnyvale, CA, USA) and Sigmaplot. […]

[3] = test system: Nav1.1; experiment: Whole-cell patch clamp, Nav1.1 in HEK293 cells; type: cell-based, rat; details: 1 µM, −10 mV from −80 mV
Source text: as §2, §1, §3

[4] = test system: TTX-R sodium channels from rat DRG neurons; details: ref [18]; cited from earlier work
Source text: In this study, the analgesic effect and mechanism of JZTX-34 on pain were investigated.

Structure (SMILES): CC(C)C[C@@H]1NC(=O)[C@H](Cc2c[nH]c3ccccc23)NC(=O)[C@H](CCC(=O)O)NC(=O)[C@H](CCCNC(=N)N)NC(=O)[C@@H](NC(=O)[C@H](C)N)CSSC[C@@H]2NC(=O)[C@@H]3CSSC[C@@H](C(=O)N[C@H](C(=O)N[C@@H](Cc4c[nH]c5ccccc45)C(=O)N[C@@H](CC(=O)O)C(=O)N[C@@H](Cc4c[nH]c5ccccc45)C(=O)N[C@H](C(=O)N[C@H](C(=O)O)C(C)C)[C@@H](C)O)C(C)C)NC(=O)[C@H](Cc4c[nH]cn4)NC(=O)[C@H](Cc4ccc(O)cc4)NC(=O)[C@@H]4CCCN4C(=O)[C@H](Cc4c[nH]c5ccccc45)NC(=O)[C@H](CCCCN)NC(=O)[C@H](CCCCN)NC(=O)[C@H](CCCNC(=N)N)NC(=O)[C@H](CSSC[C@H](NC(=O)CNC(=O)CNC1=O)C(=O)N[C@@H](CO)C(=O)N[C@@H](CCCCN)C(=O)N[C@@H](CC(=O)O)C(=O)N[C@@H](C)C(=O)N[C@@H](CC(=O)O)C(=O)N3)NC(=O)[C@H](CCC(=O)O)NC(=O)[C@H](CC(C)C)NC(=O)[C@H](Cc1c[nH]cn1)NC(=O)[C@H](C)NC2=O [JZTX-34, Jingzhaotoxin-34] (HELM PEPTIDE1{A.C.R.E.W.L.G.G.C.S.K.D.A.D.C.C.A.H.L.E.C.R.K.K.W.P.Y.H.C.V.W.D.W.T.V}$PEPTIDE1,PEPTIDE1,2:R3-16:R3|PEPTIDE1,PEPTIDE1,9:R3-21:R3|PEPTIDE1,PEPTIDE1,15:R3-29:R3$$$V2.0; N-terminus and C-terminus assumed)
- inhibition at first pulse after incubation at rest ([1]; 5 min incubation, −10 mV (legend: 0 mV) from −80 mV): currents were significantly inhibited at the first pulse
- current amplitude at first test pulse (0 mV) ([1]; 15 ms test pulse to 0 mV from −80 mV): greatly depressed in a time-dependent manner
- inward current at second test pulse (−65 mV) ([1]; after 1 ms conditioning pulse to +50 mV): no inward current was observed
- effect on Nav1.8 currents [2]: No effects
- effect on Nav1.1 currents [3]: No effects
- effect on TTX-R sodium currents (previous work) [4]: no inhibition on tetrodotoxin-resistant (TTX-R) sodium currents
